{"source": "patent US12168010B2", "about": "“Use of co-enzyme antagonists to slow metabolism” (priority 2020, dated 2024)", "key": {"[1]": {"conditions": "rat, in vivo, po", "description": "This means that there is a very efficient cleavage of B-OT into OT, and a high percentage amount of OT is present in the blood. Thus, B-OT is a pharmacokinetically good and orally applicable substance that allows good and efficient delivery of OT. Since OT usually must/should be administered intraperitoneally, the oral administration of B-OT represents an important advantage in comparison. The bioavailability and absorption of B-OT is also more suitable for human therapy due to the more lipophilic basic structure of B-OT compared to OT. Compared to OT, B-OT is thus better, easier and safer to use as a drug."}, "[2]": {"assay": "Study in dogs on the conversion of B-OT to OT (toxicokinetics of OT in plasma, tolerability)", "format": "in vivo, dogs (Beagle breed)", "protocol": "FIG. 1: Change in individual plasma concentrations of OT with time (over 24 hours) in male beagle dogs. The y-axis indicates—the plasma concentration in ng/ml. • On the x-axis the time is indicated in hours (h=hours) • (a) Change in individual plasma concentrations on day 1 after administration of a single dose of B-OT in an amount of 1 mg/kg/day. • The symbols mean: • —⋄—=dog no. 3001 • —□—=dog no. 3002 • (b) Change in individual plasma concentrations on day 1 after administration of a single dose of B-OT in an amount of 0.5 mg/kg/day. • The symbols mean: • —Δ—=dog no. 4001 • —∘—=dog no. 4002 • (c) Change in individual plasma concentrations at day 7 after seven days of administration of single doses of B-OT in an amount of 0.5 mg/kg/day. • The symbols mean: • —Δ—=dog no. 4001 • —∘—=dog no. […] • (d) Change in mean plasma concentrations on day 1 after administration of a single dose of B-OT at 1 mg/kg/day, and on day 1 and day 7 after daily administration of single doses of B-OT in an amount of 0.5 mg/kg/day. • The symbols mean: • —□—=group 3, 1.0 mg/kg/day, day 1 • —Δ—=Group 4, 0.5 mg/kg/day, day 1. • —∘—=group 4, 0.5 mg/kg/day, day 7.\nMale and female dogs (Beagle breed) were administered B-OT (benfo-oxythiamine) orally once daily for periods of one to seven days in amounts of 1 mg/kg/day or 0.5 mg/kg/day.\nThe toxicokinetics of the active metabolite OT (oxythiamine) was determined in plasma samples obtained on the first day “Day 1” and on the seventh day “Day 7” after the start of administration. The measurement results obtained are shown graphically in FIGS. 1 (a) to (d)."}, "SARS-CoV-2": {"tested_on": "SARS-CoV-2", "assay": "Curative trials: B-OT in addition to standard therapy in patients with covid-19 pneumonia"}, "[3]": {"assay": "Comparison of B-OT amounts per kg body weight in dogs and humans versus rats and mice", "format": "in vivo"}, "[4]": {"assay": "Change in pulse beat (heart rate) in dogs after administration of B-OT", "format": "in vivo", "conditions": "over 24 hours, B-OT 0.05, 0.15, 0.5 mg/kg/day", "protocol": "FIG. 2: Graph showing the change in plus beat with time in dogs after administration of different amounts (doses) of B-OT. On the y-axis, the pulse beat (heart rate) is given in beats per minute (bpm). On the x-axis, the time is given in hours. • The symbols mean: • —●=0 mg/kg/day—Benfooxythiamine=0 mg/kg/day—B-OT • —□—=0.05 mg/kg/day—Benfooxythiamine=0.05 mg/kg/day—B-OT • —Δ—=0.15 mg/kg/day—Benfooxythiamine=0.15 mg/kg/day—B-OT • −⋄—=0.5 mg/kg/day—Benfooxythiamine=0.5 mg/kg/day—B-OT\nBy slowing down (throttling) the metabolism, GSSV also causes a reduction in the energy released with it. The body attempts to compensate for the lower energy release by increasing the pulse rate in order to transport more oxygen into the body so that more energy can be released as a result. The increase in the patient's pulse beat is an indication and a suitable parameter that GSSV has inhibited energy release and to what extent. If there is a sharp increase in pulse rate, e.g., in a person a pulse rate above 90, countermeasures may be necessary to increase energy release again."}, "[5]": {"assay": "In vivo pharmacokinetics: oxythiamine in the brain after B-OT administration"}, "[6]": {"conditions": "all patients with additional B-OT therapy"}}, "note": "“Also recorded” adds a separate entry of the source."}
{"smiles": "C/C(=C(/CCOP(=O)(O)O)SC(=O)c1ccccc1)N(C=O)Cc1cnc(C)[nH]c1=O", "note": "[B-OT, benfo-oxythiamine]", "values": [{"measurement": "B-OT (prodrug form) measurable in the blood", "setting": "[1]", "value": 0, "unit": "%"}, {"measurement": "share of total amount of B-OT administered measurable in the blood in the form of oxythiamine (OT)", "setting": "[1]", "value": 44, "unit": "%"}, {"measurement": "behavior and physical condition", "setting": "[2]; dog, in vivo", "value": "No relevant abnormalities"}, {"measurement": "body weight", "setting": "[2]; dog, in vivo", "value": "no significant variations in body weight"}, {"measurement": "systemic exposure to OT / B-OT", "setting": "[2]; dog, in vivo, po", "value": "exposed to the active metabolite OT but not to the preform (prodrug) B-OT"}, {"measurement": "tolerability of treatment", "setting": "[2]; dogs, oral B-OT 1 or 0.5 mg/kg/day, one to seven days", "value": "well tolerated"}, {"measurement": "viral pneumonia infiltrates in lung computed tomography", "setting": "SARS-CoV-2; after 7 days of B-OT therapy versus before", "value": "marked decrease in infiltrates; also recorded: marked decrease of infiltrates; also recorded: significant decrease in the previously pronounced infiltrates"}, {"measurement": "C-reactive Protein (CRP)", "setting": "SARS-CoV-2; [6]", "value": "significant reduction"}, {"measurement": "Interleukin-6 (IL-6)", "setting": "SARS-CoV-2; [6]", "value": "significant reduction"}, {"measurement": "required inpatient stay", "setting": "SARS-CoV-2; compared with the overall collective of more than 700 patients", "value": "on average one week less"}, {"measurement": "side effects attributable to B-OT", "setting": "SARS-CoV-2; four covid-19 pneumonia patients, 6 mg B-OT per day perorally for seven days", "value": "None of the patients showed side effects"}, {"measurement": "need for intensive care", "setting": "SARS-CoV-2; four covid-19 pneumonia patients, 6 mg B-OT per day perorally for seven days plus standard therapy", "value": "none of the four patients required intensive care"}, {"measurement": "need for respiratory support therapy beyond nasal cannula or mask oxygen insufflation", "setting": "SARS-CoV-2; four patients with additional B-OT therapy, versus overall collective of more than 700 patients", "value": "none of the four patients"}, {"measurement": "lung computed tomography at follow-up", "setting": "SARS-CoV-2; patient 2, one month after the end of therapy", "value": "stable findings"}, {"measurement": "reaction of dogs and humans to B-OT amounts per kg applied to rats and mice", "setting": "[3]; rodent amounts per kilogram body weight used in dogs and humans", "value": "in many cases led to death"}, {"measurement": "dose usable in humans and dogs compared to published amounts used in rats and mice", "setting": "[3]; to avoid serious, sometimes fatal, courses", "value": "approximately two hundredfold lower dose"}, {"measurement": "pulse beat (heart rate)", "setting": "[4]", "value": "significant increase in pulse beat"}]}
{"smiles": "Cc1ncc(C[n+]2csc(CCO)c2C)c(=O)[nH]1", "note": "[OT, oxythiamine]", "values": [{"measurement": "oxythiamine in the brain after B-OT is administered", "setting": "[5]", "value": "present in significant amounts in the brain"}, {"measurement": "time of maximum OT plasma concentration (Tmax) after administration of B-OT", "setting": "[2]; Beagle dogs, oral B-OT, all applied doses", "value": "between one and two hours"}, {"measurement": "systemic exposure to OT / B-OT", "setting": "[2]; dogs treated orally with B-OT", "value": "achieved in all animals"}, {"measurement": "increase in plasma concentrations of oxythiamine (OT) with B-OT dose", "setting": "[2]; dogs, stepwise increase of B-OT dose from 0.2 mg/kg to 1.0 mg/kg", "value": "approximately linearly proportional to the increase in dose"}, {"measurement": "increase in plasma OT based on dose-normalized Cmax and partial AUC", "setting": "[2]; male beagle dogs, oral B-OT single doses, over the range of applied doses", "value": "less than dose-proportional increase"}]}
